Experimental findings from ChEMBL document CHEMBL2176967, “Radiofluorinated derivatives of 2-(phosphonomethyl)pentanedioic acid as inhibitors of prostate specific membrane antigen (PSMA) for the imaging of prostate cancer” (J Med Chem, 2012) are described below.

The target in series [1] is T1, Glutamate carboxypeptidase 2 (Homo sapiens, UniProt Q04609). The experiment in a line: Binding affinity to NAALADase.
In series [2] the target is T1, Glutamate carboxypeptidase 2. The experiment in a line: biochemical.
Description: Inhibition of NAALADase activity in human LNCaP cell membranes assessed as inhibition of [3H]NAG conversion to [3H]glutamate after 30 mins by liquid scintillation counting
A further series concerns Liver. The experiment in a line: Drug level in human LNCaP cells xenografted Balb/c mouse liver at 10 MBq, iv measured after 45 to 130 mins by PET/CT scanning. It is filed as ADME, organism-based. The conditions noted are these: in vivo. On the technique in general: Xenograft models place foreign cells or tissue in a host animal.
A short description of series [3]: Drug level in human LNCaP cells xenografted Balb/c mouse tumor at 10 MBq, iv measured after 45 to 130 mins by PET/CT scanning in presence of unlabelled compound. It is filed as ADME, organism-based, Neoplasm. The conditions noted are these: in vivo.
Series [4] has as its system Kidney. In words: Drug level in human LNCaP cells xenografted Balb/c mouse kidney at 10 MBq, iv measured after 45 to 130 mins by PET/CT scanning in presence of unlabelled compound. It is filed as ADME, organism-based. The conditions noted are these: in vivo.
In series [5] the test system is Kidney. The experiment in a line: Drug level in human LNCaP cells xenografted Balb/c mouse kidney at 10 MBq, iv measured after 45 to 130 mins by PET/CT scanning. It is filed as ADME, organism-based. The conditions noted are these: in vivo.
The next series deals with Urinary bladder. The experiment in a line: Drug level in human LNCaP cells xenografted Balb/c mouse bladder at 10 MBq, iv measured after 45 to 130 mins by PET/CT scanning. The conditions noted are these: in vivo. It is filed as ADME, organism-based.
Series [6] in a line: Drug level in human LNCaP cells xenografted Balb/c mouse gut at 10 MBq, iv measured after 45 to 130 mins by PET/CT scanning. It is filed as ADME, organism-based. The conditions noted are these: in vivo.
Series [7] in a line: Drug level in human LNCaP cells xenografted Balb/c mouse tumor at 10 MBq, iv measured after 45 to 130 mins by PET/CT scanning. The conditions noted are these: in vivo. It is filed as ADME, organism-based, Neoplasm.
The next series relates to Bone. The experiment in a line: Drug level in human LNCaP cells xenografted Balb/c mouse bone at 10 MBq, iv measured after 45 to 130 mins by PET/CT scanning. The conditions noted are these: in vivo. It is filed as ADME, organism-based, Bone element.

T1 sequence (Q04609 whole entry): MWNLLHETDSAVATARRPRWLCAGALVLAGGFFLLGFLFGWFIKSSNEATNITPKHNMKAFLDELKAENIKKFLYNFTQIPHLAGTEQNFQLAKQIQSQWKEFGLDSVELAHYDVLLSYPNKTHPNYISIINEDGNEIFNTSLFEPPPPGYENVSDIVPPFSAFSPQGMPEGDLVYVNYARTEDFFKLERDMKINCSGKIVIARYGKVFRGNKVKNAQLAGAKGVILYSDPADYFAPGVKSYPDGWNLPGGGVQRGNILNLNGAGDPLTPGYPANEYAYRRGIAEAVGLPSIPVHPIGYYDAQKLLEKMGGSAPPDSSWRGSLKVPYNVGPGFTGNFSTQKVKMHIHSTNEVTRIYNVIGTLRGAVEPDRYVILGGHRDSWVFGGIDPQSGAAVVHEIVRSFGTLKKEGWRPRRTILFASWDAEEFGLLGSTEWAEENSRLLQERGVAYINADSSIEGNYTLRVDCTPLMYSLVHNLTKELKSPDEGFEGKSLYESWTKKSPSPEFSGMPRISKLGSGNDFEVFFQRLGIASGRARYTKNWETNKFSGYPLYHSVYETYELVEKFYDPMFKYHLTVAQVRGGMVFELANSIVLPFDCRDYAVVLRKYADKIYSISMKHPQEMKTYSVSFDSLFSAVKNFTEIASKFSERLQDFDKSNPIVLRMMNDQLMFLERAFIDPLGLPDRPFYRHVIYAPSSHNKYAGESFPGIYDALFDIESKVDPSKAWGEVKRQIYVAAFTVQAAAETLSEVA

As a reminder, the Ki is the equilibrium dissociation constant of an inhibitor or competing ligand from its target. Low values mean a stronger hold on the target, high ones a looser hold on the target. Compound `C[C@@H](C[C@H](NC(=O)N[C@@H](C[C@H](C)C(=O)O)C(=O)O)C(=O)O)C(=O)O` registered an inhibitory constant (Ki) in series [1] of 1110 nM. That is a single-digit micromolar value.

In series [1], `C[C@H](C[C@H](NC(=O)N[C@@H](C[C@@H](C)C(=O)O)C(=O)O)C(=O)O)C(=O)O` came in with a Ki of 1280 nM.

Usually IC50 stands for the concentration at which inhibition is half-maximal. As for `O=C(O)[C@@H](C[C@@H](F)C(=O)O)CP(=O)(O)O`, in series [2], it took 89.4 nM to reach half-maximal inhibition (IC50) and affinity was put at a Ki of 36.4 nM.

For `O=C(O)[C@H](C[C@H](F)C(=O)O)CP(=O)(O)O`, in [2], the IC50 came out at 3.1 nM and the affinity, expressed as Ki, was 1.4 nM.

On to `O=C(O)[C@H](C[C@@H](F)C(=O)O)CP(=O)(O)O`, for which, in series [2], the IC50 is 8.1 nM and the Ki was 3.1 nM.

In [2], `O=C(O)[C@@H](C[C@H](F)C(=O)O)CP(=O)(O)O` gave an IC50 of 55.9 nM and a Ki of 22 nM.

In [1], `O=C(N[C@@H](C[C@@H](Cc1ccccc1)C(=O)O)C(=O)O)N[C@@H](C[C@@H](Cc1ccccc1)C(=O)O)C(=O)O` displayed a Ki of 392 nM.

Regarding `O=C(O)CCCC(CP(=O)(O)O)C(=O)O` (stereo not drawn), the IC50 in [1] is 185 nM.

The compound `O=C(O)CC[C@H](NC(=O)N[C@@H](CCC(=O)O)C(=O)O)C(=O)O` returned a Ki in [1] of 8 nM.

As for `O=C(O)C([18F])CC(CP(=O)(O)O)C(=O)O` (racemic), the Drug uptake entry in the series with Liver is on record as “Not Active”; in series [3] it was “Not Active”; in the series with Kidney [4], “Not Active”; with Kidney [5] it was “Active”; in the series on Urinary bladder, “Active”; in series [6], “Not Active”. Besides, the Drug uptake entry (in series [7]; in the series on Bone) was “Active” in each case.

Regarding `O=C(O)C(F)CC(CP(=O)(O)O)C(=O)O` (racemic), in [2], inhibition was half-maximal at 6.8 nM (IC50) and the affinity, expressed as Ki, was 2.6 nM.
